Source: patent US20220298213A1, “IN VIVO ENGINEERED CEREBLON PROTEIN” (Vividion Therapeutics, Inc., priority 2018, published 2022)

Key:
Assay type in all cases: binding
[1] = tested on: PRTN_C; assay: Inhibition of probe labeling at screening concentration (Table 1); conditions: 500 μM
Procedure: (§1) Cells were resuspended in cold PBS on ice and sonicated with a probe sonicator to achieve lysis. 200 μL of lysate containing 5 mg/ml proteome was treated with 2 μL of 100× compound stock in a 2-mL deep-well plate. The treated lysate was subsequently incubate at 25° C. for 1 hr with shaking at 600 rpm. The treated lysate was further incubated with 2 μL of 10 mM desthiobiotin iodoacetamide probe at 25° C. for 1 hr with shaking at 600 rpm. Next, the lysate was further treat with 20 μL of solution of PBS containing 11 mM MgSO4 and 2.5% Turbonuclease stock and incubated at 25° C. for 20 minutes with shaking at 600 rpm. 1.7 mL ice-cold acetone was added to each well and incubated at −20° C. for 2 hr, followed by max speed (4200 rpm) spin for 45 min. Acetone was then decanted and the plates were blotted to remove acetone. The plates were then dried in open air for 20 minutes. After drying, the plates were then covered with foil seal and stored at −80° C. overnight.

[2] = tested on: PRTN_H; assay: as above; conditions: 500 μM
Procedure: as §1

[3] = tested on: PRTN_D; assay: as above; conditions: 500 μM
Procedure: as §1

[4] = tested on: PRTN_A; assay: as above; conditions: 500 μM
Procedure: as §1

[5] = tested on: PRTN_E; assay: as above; conditions: 500 μM
Procedure: as §1

[6] = tested on: PRTN_K; assay: as above; conditions: 500 μM
Procedure: as §1

[7] = tested on: PRTN_B; assay: as above; conditions: 500 μM
Procedure: as §1

[8] = tested on: PRTN_G; assay: as above; conditions: 500 μM
Procedure: as §1

[9] = tested on: PRTN_J; assay: as above; conditions: 500 μM
Procedure: as §1

[10] = tested on: PRTN_I; assay: as above; conditions: 500 μM
Procedure: as §1

[11] = tested on: PRTN_F; assay: as above; conditions: 500 μM
Procedure: as §1

[12] = target: T1, CRBN-287 (Homo sapiens, UniProt Q96SW2); assay: as above; parameters: endogenous in cells; host or cells: cell lysate; conditions: native folded protein, read-out: Percentage inhibition of probe labeling, CRBN_287
Procedure: as §1

[13] = target: T2, CRBN-318 (Homo sapiens, UniProt Q96SW2); assay: as above; parameters: endogenous in cells; host or cells: cell lysate; conditions: native folded protein, read-out: Percentage inhibition of probe labeling, CRBN_318
Procedure: as §1

[14] = target: T1, CRBN-287; assay: Probe labeling at native and denatured states after pretreatment (Table 2); parameters: endogenous in cells; host or cells: cell lysate; conditions: screening concentration
Procedure: (§2) To determine whether the co-inhibition of C287 and C318 was due to a direct or indirect mechanism, CRBN was pretreated with various Michael acceptor compounds and then tested for probe labeling in its native and denatured states.
(§3) In each the cell lysate was pretreated with compound, for native state data the probe was immediately added and for denatured data the probe was added after an additional step of denaturation (schematic shown in FIG. 4).

[15] = target: T2, CRBN-318; assay: as above; parameters: endogenous in cells; host or cells: cell lysate; conditions: screening concentration
Procedure: as §2, §3

[16] = target: T3, BTK_481 (Homo sapiens, UniProt Q06187); assay: as above; conditions: screening concentration
T3 construct: In each the cell lysate was pretreated with compound; endogenous in cells

[17] = target: T4, CRBN_322 (Homo sapiens, UniProt Q96SW2); assay: as above; conditions: screening concentration
T4 construct: endogenous in cells; host or cells: cell lysate
Procedure: as §2, §3

[18] = target: T5, CRBN_343 (Homo sapiens, UniProt Q96SW2); assay: as above; conditions: denatured state, screening concentration
T5 construct: endogenous in cells; host or cells: cell lysate
Procedure: as §2, §3

[19] = target: T6, CRBN_234 (Homo sapiens, UniProt Q96SW2); assay: as above; conditions: screening concentration
T6 construct: endogenous in cells; host or cells: cell lysate
Procedure: as §2, §3

[20] = target: T7, CRBN_441 (Homo sapiens, UniProt Q96SW2); assay: as above; conditions: denatured state, screening concentration
T7 construct: endogenous in cells; host or cells: cell lysate
Procedure: as §2, §3

[21] = target: T8, CRBN_188 (Homo sapiens, UniProt Q96SW2); assay: as above; conditions: screening concentration
T8 construct: endogenous in cells; host or cells: cell lysate
Procedure: as §2, §3

[22] = target: T9, CRBN_219 (Homo sapiens, UniProt Q96SW2); assay: as above; conditions: screening concentration
T9 construct: endogenous in cells; host or cells: cell lysate
Procedure: as §2, §3

[23] = target: T10, CRBN_310 (Homo sapiens, UniProt Q96SW2); assay: as above; conditions: screening concentration
T10 construct: endogenous in cells; host or cells: cell lysate
Procedure: as §2, §3

[24] = target: T11, CRBN_326 (Homo sapiens, UniProt Q96SW2); assay: as above; conditions: denatured state, screening concentration
T11 construct: endogenous in cells; host or cells: cell lysate
Procedure: as §2, §3

[25] = target: T12, CRBN_205 (Homo sapiens, UniProt Q96SW2); assay: as above; conditions: screening concentration
T12 construct: endogenous in cells; host or cells: cell lysate
Procedure: as §2, §3

[26] = target: T13, TEC_449 (Homo sapiens, UniProt P42680); assay: as above; conditions: screening concentration
T13 construct: In each the cell lysate was pretreated with compound; endogenous in cells
T13 sequence (P42680 1-631): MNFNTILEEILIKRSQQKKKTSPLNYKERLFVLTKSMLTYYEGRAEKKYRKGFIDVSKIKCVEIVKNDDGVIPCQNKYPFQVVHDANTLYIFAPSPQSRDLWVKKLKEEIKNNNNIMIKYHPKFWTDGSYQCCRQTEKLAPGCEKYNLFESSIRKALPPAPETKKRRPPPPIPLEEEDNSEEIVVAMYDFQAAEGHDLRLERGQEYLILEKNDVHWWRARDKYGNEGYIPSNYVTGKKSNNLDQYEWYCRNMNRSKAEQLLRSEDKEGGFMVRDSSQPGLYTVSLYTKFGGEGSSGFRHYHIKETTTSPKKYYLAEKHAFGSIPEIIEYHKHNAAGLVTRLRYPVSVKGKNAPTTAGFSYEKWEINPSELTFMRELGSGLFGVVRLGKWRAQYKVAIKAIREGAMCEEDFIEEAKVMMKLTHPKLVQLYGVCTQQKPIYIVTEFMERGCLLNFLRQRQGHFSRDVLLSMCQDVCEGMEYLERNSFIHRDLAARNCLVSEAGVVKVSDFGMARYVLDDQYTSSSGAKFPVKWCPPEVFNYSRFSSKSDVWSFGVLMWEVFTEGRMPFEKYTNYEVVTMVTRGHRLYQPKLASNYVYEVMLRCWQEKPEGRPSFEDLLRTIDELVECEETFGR

[27] = denatured state, probe added after denaturation
[28] = native state, cell lysate pretreated

T1 sequence (Q96SW2 whole entry): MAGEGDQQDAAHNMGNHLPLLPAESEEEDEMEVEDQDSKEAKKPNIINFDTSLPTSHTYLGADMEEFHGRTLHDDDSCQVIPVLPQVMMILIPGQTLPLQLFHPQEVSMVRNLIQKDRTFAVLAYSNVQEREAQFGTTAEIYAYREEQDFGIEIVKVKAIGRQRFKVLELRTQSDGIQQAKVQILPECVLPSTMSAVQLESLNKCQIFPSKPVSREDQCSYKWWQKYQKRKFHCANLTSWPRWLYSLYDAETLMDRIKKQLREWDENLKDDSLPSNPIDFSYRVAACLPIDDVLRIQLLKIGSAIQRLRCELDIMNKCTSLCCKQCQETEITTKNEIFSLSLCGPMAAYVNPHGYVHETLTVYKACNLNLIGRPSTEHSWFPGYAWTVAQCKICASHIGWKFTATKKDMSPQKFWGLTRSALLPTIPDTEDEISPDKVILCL
T2 sequence (Q96SW2 whole entry): as above
T3 sequence (Q06187 whole entry): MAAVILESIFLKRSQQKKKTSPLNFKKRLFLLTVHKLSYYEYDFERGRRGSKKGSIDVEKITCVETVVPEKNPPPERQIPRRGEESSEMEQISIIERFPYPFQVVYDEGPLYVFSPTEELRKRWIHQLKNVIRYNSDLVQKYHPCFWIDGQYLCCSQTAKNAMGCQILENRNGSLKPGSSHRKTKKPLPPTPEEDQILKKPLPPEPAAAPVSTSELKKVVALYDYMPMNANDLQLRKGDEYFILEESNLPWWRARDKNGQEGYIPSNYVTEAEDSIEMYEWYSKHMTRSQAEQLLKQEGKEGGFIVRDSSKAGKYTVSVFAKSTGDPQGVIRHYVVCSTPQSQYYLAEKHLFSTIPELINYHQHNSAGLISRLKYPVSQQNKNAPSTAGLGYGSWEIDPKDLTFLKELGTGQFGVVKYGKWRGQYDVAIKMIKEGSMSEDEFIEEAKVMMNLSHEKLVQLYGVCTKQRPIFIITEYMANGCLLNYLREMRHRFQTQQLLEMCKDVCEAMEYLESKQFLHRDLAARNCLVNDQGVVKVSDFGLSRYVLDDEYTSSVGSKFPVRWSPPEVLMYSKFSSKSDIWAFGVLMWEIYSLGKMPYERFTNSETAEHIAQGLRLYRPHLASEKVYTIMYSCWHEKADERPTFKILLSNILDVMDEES
T8 sequence (Q96SW2 whole entry): as the sequence (Q96SW2 whole entry) above
T6 sequence (Q96SW2 whole entry): as above
T4 sequence (Q96SW2 whole entry): as above
T9 sequence (Q96SW2 whole entry): as above
T12 sequence (Q96SW2 whole entry): as above
T10 sequence (Q96SW2 whole entry): as above
T11 sequence (Q96SW2 whole entry): as above
T5 sequence (Q96SW2 whole entry): as above
T7 sequence (Q96SW2 whole entry): as above

SMILES: CCc1ccccc1-c1cccc(NC2CCN(C(=O)/C=C/CC(C)C)CC2)c1
- Percentage inhibition of probe labeling, PRTN_C [1]: 14%
- Percentage inhibition of probe labeling, PRTN_H [2]: 4%
- Percentage inhibition of probe labeling, PRTN_D [3]: 17%
- Percentage inhibition of probe labeling, PRTN_A [4]: 10%
- Percentage inhibition of probe labeling, PRTN_E [5]: 12%
- Percentage inhibition of probe labeling, PRTN_K [6]: 22%
- Percentage inhibition of probe labeling, PRTN_B [7]: 3%
- Percentage inhibition of probe labeling, PRTN_G [8]: 13%
- Percentage inhibition of probe labeling, PRTN_J [9]: 11%
- Percentage inhibition of probe labeling, PRTN_I [10]: 14%
- Percentage inhibition of probe labeling, PRTN_F [11]: 2%
- inhibition at 500 µM [12]: 98%
- inhibition at 500 µM [13]: 96%

SMILES: C=CC(=O)N1CCC(Nc2cc(C(N)=O)cc(-c3ccccc3CC)c2)CC1
- Percentage inhibition of probe labeling, PRTN_C [1]: 19%
- Percentage inhibition of probe labeling, PRTN_H [2]: 6%
- Percentage inhibition of probe labeling, PRTN_D [3]: 18%
- Percentage inhibition of probe labeling, PRTN_A [4]: −2%
- Percentage inhibition of probe labeling, PRTN_E [5]: 8%
- Percentage inhibition of probe labeling, PRTN_K [6]: 12%
- Percentage inhibition of probe labeling, PRTN_B [7]: 0%
- Percentage inhibition of probe labeling, PRTN_G [8]: 6%
- Percentage inhibition of probe labeling, PRTN_J [9]: 7%
- Percentage inhibition of probe labeling, PRTN_I [10]: −1%
- Percentage inhibition of probe labeling, PRTN_F [11]: 4%
- inhibition at 500 µM [12]: 97%
- inhibition at 500 µM [13]: 98%

SMILES: C=CC(=O)N1CCC(Oc2cc(C)cc(-c3ccccc3)c2)CC1
- Percentage inhibition of probe labeling, PRTN_C [1]: 15%
- Percentage inhibition of probe labeling, PRTN_H [2]: −5%
- Percentage inhibition of probe labeling, PRTN_D [3]: 2%
- Percentage inhibition of probe labeling, PRTN_A [4]: 5%
- Percentage inhibition of probe labeling, PRTN_E [5]: 2%
- Percentage inhibition of probe labeling, PRTN_K [6]: 17%
- Percentage inhibition of probe labeling, PRTN_B [7]: −1%
- Percentage inhibition of probe labeling, PRTN_G [8]: −8%
- Percentage inhibition of probe labeling, PRTN_J [9]: −2%
- Percentage inhibition of probe labeling, PRTN_I [10]: 0%
- Percentage inhibition of probe labeling, PRTN_F [11]: −12%
- inhibition at 500 µM [12]: 72%
- inhibition at 500 µM [13]: 76%

SMILES: C=CC(=O)N1CCC(Oc2cc(C#N)cc(-c3ccccc3OC)c2)CC1 [drawing 205]
- inhibition of probe labeling, CRBN_287, Den. [14, 27]: 91%
- inhibition of probe labeling, CRBN_287, Nat. [14, 28]: 98%
- inhibition of probe labeling, CRBN_318, Den. [15, 27]: 38%
- inhibition of probe labeling, CRBN_318, Nat. [15, 28]: 92%
- inhibition of probe labeling, BTK_481, Den. ([16]; denatured state): 21%
- inhibition of probe labeling, BTK_481, Nat. ([16]; native state): 52%
- inhibition of probe labeling, CRBN_322, Den. ([17]; denatured state): 19%
- inhibition of probe labeling, CRBN_322, Nat. ([17]; native state): 25%
- inhibition of probe labeling, CRBN_343, Den. [18]: −5%
- inhibition of probe labeling, CRBN_234, Den. ([19]; denatured state): 26%
- inhibition of probe labeling, CRBN_234, Nat. ([19]; native state): 11%
- inhibition of probe labeling, CRBN_441, Den. [20]: −6%
- inhibition of probe labeling, CRBN_188, Den. ([21]; denatured state): −28%
- inhibition of probe labeling, CRBN_188, Nat. ([21]; native state): −18%
- inhibition of probe labeling, CRBN_219, Den. ([22]; denatured state): −2%
- inhibition of probe labeling, CRBN_219, Nat. ([22]; native state): −36%
- inhibition of probe labeling, CRBN_310, Den. ([23]; denatured state): 43%
- inhibition of probe labeling, CRBN_310, Nat. ([23]; native state): 54%
- inhibition of probe labeling, CRBN_326, Den. [24]: −6%
- inhibition of probe labeling, CRBN_205, Den. ([25]; denatured state): 4%
- inhibition of probe labeling, CRBN_205, Nat. ([25]; native state): −4%
- inhibition of probe labeling, TEC_449, Den. ([26]; denatured state): 33%
- inhibition of probe labeling, TEC_449, Nat. ([26]; native state): 28%

SMILES: C=CC(=O)N1CCC(Oc2cc(C)cc(-c3ccccc3OC)c2)CC1
- Percentage inhibition of probe labeling, PRTN_C [1]: 18%
- Percentage inhibition of probe labeling, PRTN_H [2]: 9%
- Percentage inhibition of probe labeling, PRTN_D [3]: 9%
- Percentage inhibition of probe labeling, PRTN_A [4]: 7%
- Percentage inhibition of probe labeling, PRTN_E [5]: 11%
- Percentage inhibition of probe labeling, PRTN_K [6]: 13%
- Percentage inhibition of probe labeling, PRTN_B [7]: 2%
- Percentage inhibition of probe labeling, PRTN_G [8]: 13%
- Percentage inhibition of probe labeling, PRTN_J [9]: 6%
- Percentage inhibition of probe labeling, PRTN_I [10]: 7%
- Percentage inhibition of probe labeling, PRTN_F [11]: 6%
- inhibition at 500 µM [12]: 94%
- inhibition at 500 µM [13]: 94%

SMILES: C=CC(=O)N1CCC(Cc2cccc(-c3ccccc3NC(C)=O)c2)CC1
- Percentage inhibition of probe labeling, PRTN_C [1]: 3%
- Percentage inhibition of probe labeling, PRTN_H [2]: 2%
- Percentage inhibition of probe labeling, PRTN_D [3]: 8%
- Percentage inhibition of probe labeling, PRTN_A [4]: 8%
- Percentage inhibition of probe labeling, PRTN_E [5]: 9%
- Percentage inhibition of probe labeling, PRTN_K [6]: 20%
- Percentage inhibition of probe labeling, PRTN_B [7]: 8%
- Percentage inhibition of probe labeling, PRTN_G [8]: 12%
- Percentage inhibition of probe labeling, PRTN_J [9]: 21%
- Percentage inhibition of probe labeling, PRTN_I [10]: −1%
- Percentage inhibition of probe labeling, PRTN_F [11]: 7%
- inhibition at 500 µM [12]: 69%
- inhibition at 500 µM [13]: 71%
